What was measured:
sEH = biological target: T1, sEH (Homo sapiens, UniProt P34913); assay: Inhibition of sEH activity; assay type: biochemical
T1 sequence (P34913 1-555): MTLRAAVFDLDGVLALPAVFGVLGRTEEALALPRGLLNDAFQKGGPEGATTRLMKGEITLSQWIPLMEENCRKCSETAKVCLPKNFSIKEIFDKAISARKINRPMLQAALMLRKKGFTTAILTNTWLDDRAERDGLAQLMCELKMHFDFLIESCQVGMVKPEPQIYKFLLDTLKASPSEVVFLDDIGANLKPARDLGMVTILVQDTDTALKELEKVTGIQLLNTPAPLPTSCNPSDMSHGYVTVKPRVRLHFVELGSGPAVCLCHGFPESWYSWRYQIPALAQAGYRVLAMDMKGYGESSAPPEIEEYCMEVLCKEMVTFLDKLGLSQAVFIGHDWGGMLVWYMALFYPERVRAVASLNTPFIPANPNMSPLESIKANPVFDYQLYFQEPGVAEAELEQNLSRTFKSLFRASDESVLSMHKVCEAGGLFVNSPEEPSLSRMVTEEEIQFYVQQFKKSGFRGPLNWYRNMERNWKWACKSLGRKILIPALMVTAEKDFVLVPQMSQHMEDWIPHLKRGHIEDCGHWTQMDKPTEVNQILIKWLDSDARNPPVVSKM
Source text: Any of a number of standard assays for determining epoxide hydrolase activity can be used to determine inhibition of sEH. For example, suitable assays are described in Gill, et al., Anal Biochem 131, 273-282 (1983); and Borhan, et al., Analytical Biochemistry 231, 188-200 (1995)). Suitable in vitro assays are described in Zeldin et al., J Biol. Chem. 268:6402-6407 (1993). Suitable in vivo assays are described in Zeldin et al., Arch Biochem Biophys 330:87-96 (1996). […]
The enzyme also can be detected based on the binding of specific ligands to the catalytic site which either immobilize the enzyme or label it with a probe such as dansyl, fluoracein, luciferase, green fluorescent protein or other reagent. […] The enzyme also can be detected based on the generation of fluorescent products following the hydrolysis of the epoxide. […]

Metabolic stability = assay type: in vitro ADME
[1] = system: LPS-elicited mechanical allodynia; assay: LPS-elicited mechanical allodynia, von Frey filaments; assay type: in vivo, rat; settings: topical in vehicle cream; 50 mg/kg; LPS 10 μg; FIG. 3
Description: For the quantification of mechanical allodynia, a set of von Frey filaments with different diameters corresponding to different quantities of force applied were employed. The baseline responses of animals were first determined and than LPS was injected in the hind paw. Responses were measured 1 hr and 2 hrs after LPS injection. Eight animals per group were used. Rats' paws were stimulated with filaments of increasing diameter three times. The diameter of filaments that rats withdraw their paws were recorded.

[2] = system: LPS-induced thermal hyperalgesia; assay: LPS-induced thermal hyperalgesia, hind paw withdrawal latency test (Hargreaves); assay type: in vivo, rat; settings: for LPS-induced thermal hyperalgesia, percent thermal withdrawal latency (TWL): topical in vehicle cream (Vanicream), 50 mg/kg, LPS 10 μg in hind paw, FIG. 1; for LPS-induced thermal hyperalgesia, dose dependence of percent TWL: topical in vehicle cream, LPS 10 μg, FIG. 2
Source text: The hyperalgesic response with the hind paw withdrawal test is considered to result from a combination of central and peripheral mechanisms (Kannan et al., “Endotoxin-induced local inflammation and hyperalgesia in rats mice, a new model for inflammatory pain,” Pharmacology 66:373-379 (1996)). We used the method of Hargreaves et al., “A new and sensitive method for measuring thermal nociception in cutaneous hyperalgesia”, Pain 32, 77-88 (1988) to quantify the pain response of rats treated with two sEH inhibitors and EETs. Pain was quantified using the hind paw withdrawal latency test. Male Sprague-Dawley rats (Charles River Laboratories, Inc., Wilmington, Mass.) weighing 250-300 g, were used. Animals were individually housed at UC Davis Animal Resource Facility under standard conditions with free access to food and water, and maintained for at least 1 week before the experiments. Each rat was used only once. All the experiments were performed during the daytime between 8.00 and 13.00 h (during the first phase of the light period of the diurnal cycle). Rats were first trained to the experimental chamber in three separate sessions. In the day of the experiments rats' basal response was measured and then they were treated with a neutral cream or compound containing formulated cream preceding an injection with 10 ug of endotoxin (Lipopolysaccharide, “LPS”) or capsaicin in the right hind paw to induce pain response. Pain response was then measured at 30, 60, 120 and 240 minutes post LPS or capsaicin injection. sEHIs were formulated by dissolving them in ethanol and mixing with cream in a ratio of 1:9. Eight animals per group were used. To assess thermal nociceptive responses, a commercially available device modeled after that described by Hargreaves et al., supra, was employed. This device consists of a glass surface upon which the rats are placed individually in Plexiglass cubicles (9×22×25 cm). The glass surface temperature is maintained at either 30.1° C. by a feedback-controlled, under-glass, forced-air heating system. The heating system is driven by a thermocouple attached to the bottom surface of the glass plate. The thermal nociceptive stimulus originates from a focused projection bulb mounted in a stimulus tower that is manually manipulated in a two-dimensional axis to permit the stimulus to be delivered to hind paw of each test subject. A timer is automatically actuated with the light source, and response latency is defined as the time required for the paw to show an abrupt withdrawal. Paw withdrawal is detected by a photodiode motion sensor mounted on the stimulus tower that stops the timer and terminates the stimulus. In all cases, a cut-off of 20 seconds is employed to avoid tissue injury. […]

[3] = system: carrageenan-elicited thermal hyperalgesia; assay: Carrageenan-elicited thermal hyperalgesia, paw withdrawal latency; assay type: in vivo, rat; settings: carrageenan injected into ipsilateral paw at time 0; AUDA-be administered at 20 hours post-exposure; FIG. 6
Description: Animals were exposed to carrageenan at time 0 by injection into ipsilateral paw, the contralateral paw was left untreated. AUDA-be was administered at 20 hours post-exposure to the carrageenan. Filled diamonds are the withdrawal tests of the treated paw. Filled squares are the tests of the untreated paw. To assess thermal nociceptive responses, a commercially available device modeled after that described by Hargreaves et al., supra, was employed. This device consists of a glass surface upon which the rats are placed individually in Plexiglass cubicles (9×22×25 cm). The glass surface temperature is maintained at either 30.1° C. by a feedback-controlled, under-glass, forced-air heating system. The heating system is driven by a thermocouple attached to the bottom surface of the glass plate. The thermal nociceptive stimulus originates from a focused projection bulb mounted in a stimulus tower that is manually manipulated in a two-dimensional axis to permit the stimulus to be delivered to hind paw of each test subject. A timer is automatically actuated with the light source, and response latency is defined as the time required for the paw to show an abrupt withdrawal. Paw withdrawal is detected by a photodiode motion sensor mounted on the stimulus tower that stops the timer and terminates the stimulus. In all cases, a cut-off of 20 seconds is employed to avoid tissue injury. […]

pain or itch = assay: Topical EETs in the methods of the invention (comparison of EET regioisomers); assay type: in vivo; settings: topical administration

Activity as an inhibitor of sEH (sEH)	Metabolic stability (Metabolic stability)	Compound	LPS-elicited mechanical allodynia, percent mechanical withdrawal threshold (MWT) [1]	LPS-induced thermal hyperalgesia, percent thermal withdrawal latency (TWL) [2]	LPS-induced thermal hyperalgesia, dose dependence of percent TWL [2]	Carrageenan-elicited thermal hyperalgesia, thermal withdrawal latency of paw (PWL) [3]	Effectiveness compared with other EETs in the methods of the invention (pain or itch)
particularly high activity on sEH	metabolically stable	CCCCCCCCCCCCNC(=O)NC12CC3CC(CC(C3)C1)C2 [ADU, N-Adamantyl-N′-dodecyl urea]	–	–	–	–	–
–	–	CCCCOC(=O)CCCCCCCCCCCNC(=O)NC12CC3CC(CC(C3)C1)C2 [AUDA-be, 12-(3-Adamantan-1-yl-ureido)dodecanoic acid butyl ester]	block LPS-elicited mechanical allodynia	block	block LPS-induced thermal hyperalgesia in a dose dependent way	blocks carrageenan-elicited thermal hyperalgesia	–
–	–	CCCCC/C=C\C[C@H]1O[C@H]1C/C=C\C/C=C\CCCC(=O)O [11,12-EET]	–	–	–	–	ineffective or less effective than other EETs
–	–	CCOCCOCCOCCCCCNC(=O)NC12CC3CC(CC(C3)C1)C2 [compound 950, Adamantan-1-yl-3-{5-[2-(2-ethoxyethoxy)ethoxy]pentyl}urea]	block LPS-elicited mechanical allodynia	block	block LPS-induced thermal hyperalgesia in a dose dependent way	–	–

— US9119837B2, “Use of sEH inhibitors as analgesics” (The Regents of the University of California, priority 2005, dated 2015)
